Assay [1] has as its system IL-12 activation of STAT4 in NK-92 cells. Kind of assay: IL-12 activation of STAT4 in NK-92 cells using AphaLISA SureFire technology. The class given is cell-based. The following applies: Homo sapiens, NK92; IL-12 activation of STAT4 in NK-92 cells, AlphaLISA SureFire; average IC50; read-out: IL12 pSTAT4 IC50. How it is done:
IL-2 is added freshly to the medium with each medium refreshment step. Cells are cultured in a humidified incubator at 37° C. 5% CO2.
A subcultured fraction of NK-92 cells is washed once in culture medium without rhIL-2 the day before the experiment and incubated overnight in a culture flask.
5% CO2. […] NK-92 cells are triggered with rhIL-12 for 30 min at 37° C. 5% CO2.
After 30 min of cytokine stimulation the cells are lysed by addition of 15 μL 5× lysis buffer (supplemented with the AlphaLISA kit). After 10 minutes, plates are frozen at −80° C. overnight and the next day the levels of phospho-STAT4 are quantified using the AlphaLISA SureFire ULTRA p-STAT4 (Tyr693) (Perkin Elmer, Catalogue number ALSU-PST4-A10K) according to the manufacturers instructions. AlphaLISA signal (relative light units) is measured using an Envision (Perkin Elmer).
(§1) The percentage inhibition is calculated as: […]
RLU(trigger/veh): Relative lumescent signal determined in presence of vehicle and trigger
RLU(test compound): Relative luminescent signal determined in presence of test compounds and trigger
PIN values are plotted for compounds tested in dose-response and IC50 values are derived using GraphPad Prism Software applying non-linear regression (sigmoidal) curve fitting. The data are expressed as the average IC50 from different experiments.

In assay [2] the test system is IFNα activation of STAT1 in PBMC. The assay is described as follows: IFNα activation of STAT1 in PBMC. The class given is cell-based. The following applies: Homo sapiens; IFNα activation of STAT1 in PBMC; average IC50; read-out: IFNα signaling inhibitory potency IC50. As for the experimental part: After these 2 wash steps the cell pellet is dissolved in ammonium chloride buffer (1.5 M NH4Cl, 100 mM NaHCO3 and 10 mM Na2.EDTA) for lysis of the red blood cells.
PBMC are treated with test compound for 30 min at 37° C. 5% CO2. […] After 30 min of test compound/vehicle pre-treatment, PBMC are stimulated for 30 min at 37° C. 5% CO2 with recombinant human IFNα (PeproTech, catalog number 300-02A) at a final concentration of 5 ng/mL by addition of 20 μL (10× concentrated) cytokine trigger to obtain a final volume of 200 μL per well.
After 30 min of cytokine stimulation, 200 μL of cell suspension is transferred to a 96-well V-bottom plate, centrifugated for 5 min at 1000 rpm to pellet cells, followed by removal of supernatant.
as §1
RCLU(vehicle control): Relative Chemiluminescent signal determined in presence of vehicle and trigger
RCLU(test compound): Relative Chemiluminescent signal determined in presence of test compounds and trigger
RCLU(positive control): Relative Chemiluminescent signal determined in presence of positive control and trigger
PIN values are plotted for compounds tested in dose-response and average IC50 values are derived using GraphiPad Prism Software applying non-linear regression (sigmoidal) curve fitting.

In assay [3] the target is T1, Recombinant human TYK2 catalytic domain (amino acids 871-1187) (Homo sapiens, UniProt P29597).
T1 construct: catalytic domain (amino acids 871-1187)
T1 sequence (P29597 871-1187): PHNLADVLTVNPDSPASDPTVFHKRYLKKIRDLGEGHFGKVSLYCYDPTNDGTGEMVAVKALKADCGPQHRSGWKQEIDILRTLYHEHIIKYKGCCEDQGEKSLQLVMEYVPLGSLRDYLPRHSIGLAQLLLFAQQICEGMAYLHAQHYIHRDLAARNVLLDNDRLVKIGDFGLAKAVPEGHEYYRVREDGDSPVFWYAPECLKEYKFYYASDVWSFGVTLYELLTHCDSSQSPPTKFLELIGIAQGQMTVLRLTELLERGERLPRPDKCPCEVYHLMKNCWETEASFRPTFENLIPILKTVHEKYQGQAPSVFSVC
Kind of assay: TYK2 radioactive assay polyGT substrate. Also: 0.1 µM ATP. The class given is biochemical. As for the experimental part:
After 120 min at 30° C., reactions were stopped by adding 25 μL/well of 150 mM phosphoric acid. […] Plates were washed 6 times with 300 μL per well of a 75 mM phosphoric acid solution and the bottom of the plates is sealed. […] Kinase activity is calculated by subtracting counts per min (cpm) obtained in the presence of a positive control inhibitor (10 μM staurosporine) from cpm obtained in the presence of vehicle. The ability of a test compound to inhibit this activity (or percentage inhibition) is determined as: […]
cpm test compound=cpm determined for sample with test compound present cpm control=cpm determined for sample with positive control inhibitor cpm vehicle=cpm determined in the presence of vehicle
Dose dilution series were prepared for the compounds enabling the testing of dose-response effects in the TYK2 assay and the calculation of the IC50 for each compound. Each compound is routinely tested at concentration of 20 μM followed by a 1/5 serial dilution, 10 points in a final concentration of 1% DMSO.

Structures can show the parent of a compound that is named as a salt.

Broadly, the IC50 is the concentration at which inhibition is half-maximal.

As to `Cc1cc(C#N)ncc1Oc1cc(Nc2ccc(C(=O)N3CCOCC3)nn2)c2ncn(C)c2n1` [Compound 108, 4-methyl-5-[3-methyl-7-[[6-(morpholine-4-carbonyl)pyridazin-3-yl]amino]imidazo[4,5-b]pyridin-5-yl]oxypyridine-2-carbonitrile], the IC50 in assay [1] came out at 94 nM; in assay [2] it was 52 nM; in assay [3], 2.63 nM.

As for `CCc1cc(C#N)ncc1Oc1cc(Nc2ccc(C(=O)N3CCOCC3)cn2)c2ncn(C)c2n1` [Compound 7, 4-Ethyl-5-{3-methyl-7-[5-(morpholine-4-carbonyl)-pyridin-2-ylamino]-3H-imidazo[4,5-b]pyridin-5-yloxy}-pyridine-2-carbonitrile], the IC50 in assay [1] came out at 133 nM; in assay [2], 49 nM; in assay [3] it was 0.59 nM.

For `Cc1cc(C#N)ncc1Oc1cc(Nc2ccc(OC3CN(C)C3)nn2)c2ncn(C)c2n1` [Compound 90, 4-methyl-5-[3-methyl-7-[[6-(1-methylazetidin-3-yl)oxypyridazin-3-yl]amino]imidazo[4,5-b]pyridin-5-yl]oxypyridine-2-carbonitrile], the IC50 is 1520 nM in assay [1], 288 nM in assay [2] and 12.4 nM in assay [3].

With `Cc1cc(C#N)ncc1Oc1cc(Nc2ccc(C(=O)N3CCC(C)(O)CC3)cn2)c2ncn(C)c2n1` [Compound 138, 5-[7-[[5-(4-hydroxy-4-methylpiperidine-1-carbonyl)pyridin-2-yl]amino]-3-methylimidazo[4,5-b]pyridin-5-yl]oxy-4-methylpyridine-2-carbonitrile], the IC50 was 332 nM in assay [1], 91 nM in assay [2] and 1.66 nM in assay [3].

As to `Cc1cc(C#N)ncc1Oc1cc(Nc2ccc(N3CCO[C@@H](C)C3)nn2)c2ncn(C)c2n1` [Compound 44, 4-Methyl-5-{3-methyl-7-[6-((S)-2-methyl-morpholin-4-yl)-pyridazin-3-ylamino]-3H-imidazo[4,5-b]pyridin-5-yloxy}-pyridine-2-carbonitrile], the IC50 in assay [1] amounted to 50 nM; in assay [2] it was 79 nM; in assay [3], 1.97 nM.

Take `Cc1cc(C#N)ncc1Oc1cc(Nc2ccc(C(=O)N3CC(OC(C)C)C3)cn2)c2ncn(C)c2n1` [Compound 137, 4-methyl-5-[3-methyl-7-[[5-(3-propan-2-yloxyazetidine-1-carbonyl)pyridin-2-yl]amino]imidazo[4,5-b]pyridin-5-yl]oxypyridine-2-carbonitrile]: the IC50 in assay [1] is 89 nM; in assay [2], 62 nM; in assay [3] it was 2.32 nM.

Regarding `Cc1cc(C#N)ncc1Oc1cc(Nc2ccc(C(=O)N3CC(C)(O)C3)cn2)c2ncn(C)c2n1` [Compound 119, 5-[7-[[5-(3-hydroxy-3-methyl-azetidine-1-carbonyl)-2-pyridyl]amino]-3-methyl-imidazo[4,5-b]pyridin-5-yl]oxy-4-methyl-pyridine-2-carbonitrile], the figures for the IC50 in assay [1], in assay [2] and in assay [3] were 261 nM, 81 nM and 2.56 nM, respectively.

As to `Cc1cc(C#N)ncc1Oc1cc(Nc2ccc(C(=O)N3CC4CC3CO4)cn2)c2ncn(C)c2n1` (stereo not drawn) [Compound 158, 4-methyl-5-[3-methyl-7-[[5-(2-oxa-5-azabicyclo[2.2.1]heptane-5-carbonyl)pyridin-2-yl]amino]imidazo[4,5-b]pyridin-5-yl]oxypyridine-2-carbonitrile], the values for the IC50 in assay [1], in assay [2] and in assay [3] were 204 nM, 87 nM and 1.21 nM, respectively.

For the compound `Cc1cc(C#N)ncc1Oc1cc(Nc2ccc(CN3CCOCC3)cn2)c2ncn(C)c2n1` [Compound 82, 4-methyl-5-[3-methyl-7-[[5-(morpholin-4-ylmethyl)pyridin-2-yl]amino]imidazo[4,5-b]pyridin-5-yl]oxypyridine-2-carbonitrile formate salt], the values for the IC50 in assay [1], in assay [2] and in assay [3] were 195 nM, 126 nM and 8.15 nM, respectively.

As to `Cc1cc(C#N)ncc1Oc1cc(Nc2ccc(C(=O)N3C[C@H](O)[C@@H](N4CCOCC4)C3)cn2)c2ncn(C)c2n1` [Compound 154, 5-{7-[5-((3S,4S)-3-Hydroxy-4-morpholin-4-yl-pyrrolidine-1-carbonyl)-pyridin-2-ylamino]-3-methyl-3H-imidazo[4,5-b]pyridin-5-yloxy}-4-methyl-pyridine-2-carbonitrile], the IC50 in assay [1] is 8720 nM; in assay [2], 351 nM; in assay [3], 3.36 nM.

On to `COCC1CN(C(=O)c2ccc(Nc3cc(Oc4cnc(C#N)cc4C)nc4c3ncn4C)nc2)C1` [Compound 104, 5-[7-[[5-[3-(methoxymethyl)azetidine-1-carbonyl]-2-pyridyl]amino]-3-methyl-imidazo[4,5-b]pyridin-5-yl]oxy-4-methyl-pyridine-2-carbontrile], for which the figures for the IC50 in assay [1], in assay [2] and in assay [3] were 108 nM, 65 nM and 2.88 nM, respectively.

Regarding `Cc1cc(C#N)ncc1Oc1cc(Nc2ccc(C(=O)N3CCNCC3)cn2)c2ncn(C)c2n1` [Compound 178, 4-methyl-5-[3-methyl-7-[[5-(piperazine-1-carbonyl)pyridin-2-yl]amino]imidazo[4,5-b]pyridin-5-yl]oxypyridine-2-carbonitrile], the values for the IC50 in assay [1], in assay [2] and in assay [3] were 2570 nM, 189 nM and 3.39 nM, respectively.

`Cc1cc(C#N)ncc1Oc1cc(Nc2ccc(C(=O)N3CCO[C@@H](C)C3)cn2)c2ncn(C)c2n1` [Compound 144, 4-methyl-5-[3-methyl-7-[[5-[(2S)-2-methylmorpholine-4-carbonyl]pyridin-2-yl]amino]imidazo[4,5-b]pyridin-5-yl]oxypyridine-2-carbonitrile]: the IC50 in assay [1] turned out to be 211 nM; in assay [2] it was 119 nM; in assay [3], 2.15 nM.

Regarding `Cc1cc(C#N)ncc1Oc1cc(Nc2ccc(C(=O)N3CC(O)C3)cn2)c2ncn(C)c2n1` [Compound 96, 5-[7-[[5-(3-hydroxyazetidine-1-cabonyl)-2-pyridyl]amino]-3-methyl-imidazo[4,5-b]pyridin-5-yl]oxy-4-methyl-pyridine-2-carbonitrile], the IC50 was found to be 358 nM in assay [1], 73 nM in assay [2] and 2.51 nM in assay [3].

In the case of `Cc1cc(C#N)ncc1Oc1cc(Nc2ccc(C(=O)N3CCN(C4CCC4)CC3)cn2)c2ncn(C)c2n1` [Compound 47, 5-[7-[[5-(4-cyclobutylpiperazine-1-carbonyl)pyridin-2-yl]amino]-3-methylimidazo[4,5-b]pyridin-5-yl]oxy-4-methylpyridine-2-carbonitrile], the results for the IC50 in assay [1], in assay [2] and in assay [3] were 84 nM, 52 nM and 2.02 nM, respectively.

With `Cc1cc(C#N)ncc1Oc1cc(Nc2ccc(C(=O)N3C[C@@H](C)O[C@H](C)C3)cn2)c2ncn(C)c2n1` (racemic) [Compound 149, 4-methyl-5-[3-methyl-7-[[5-[rac-(2R,6R)-2,6-dimethylmorpholine-4-carbonyl]pyridin-2-yl]amino]imidazo[4,5-b]pyridin-5-yl]oxypyridine-2-carbonitrile], the IC50 in assay [1] worked out at 347 nM; in assay [2], 218 nM; in assay [3], 3.66 nM.

(Values after patent US11564923B2, “Compounds and pharmaceutical compositions thereof for the treatment of inflammatory disorders” (Galapagos NV, priority 2017, dated 2023).)
